# Reference: patent publication US12653827B2, “Methods of treating indolent systemic mastocytosis” (Telios Pharma Inc., priority 2024, dated 2026)
# Assays:
# BTK = BTK (Homo sapiens, UniProt Q06187); experiment: MRGPRX2-induced BTK phosphorylation in ISM-like mast cells; assay type: cell-based; set-up: endogenous in cells; host or cells: Primary human mast cells differentiated from bone marrow CD34+ cells of healthy donors, cultured with SCF; settings: 0.1 μM; C48/80 stimulation
# Protocol: Human mast cells were differentiated from bone marrow CD34+ cells from four healthy donors and were cultured in the presence of SCF (100 ng/mL) to mimic mast cells in ISM and treated with Compound 128 for two hours prior to stimulation. Mas-related G protein-coupled receptor (MRGPRX2) agonists, Compound 48/80 (C48/80; a product of N-methyl-p-methoxyphenethylamine with formaldehyde) or Substance P (SP) were used to activate the MRGPRX2 pathway. For pBTK test, cells were stimulated with C48/80 (10 μg/mL) for ten minutes at 37° C. and cells were stained. The median fluorescence intensity of phosphorylated BTK was measured. The fold change over unstimulated control for pBTK was calculated. For cytokine test, cells were stimulated with C48/80 (10 μg/mL) or SP (30 μM) for four hours at 37° C. Supernatant was collected and cytokine levels were measured using the BD Cytometric Bead Array (CBA) human soluble protein master buffer kit (Becton Dickinson) and BD CBA human soluble protein flex sets for IL-8, MCP-1, GM-CSF and IL-13 (Becton Dickinson). Cytokine levels were measured and normalized to percent of control, with 0% representing the level of the unstimulated control.
# [1] = tested on: calcium influx in mast cell; experiment: IgE-mediated calcium influx in ISM patient mast cells (FIG. 17); assay type: cell-based; settings: presence of SCF
# Protocol: Mast cell from an ISM patient was treated with Compound 128 at 50 mg, 75 mg, 100 mg, and 150 mg BID dose prior to antigen (Ag) stimulation. ISM 3-2 mast cell donor MC 1061-004 C1D8 D39. Experiments performed in the presence of SCF. […] Percent of Control (POC) based on Area-under-Curve above baseline (1st value).
# mast cells [2] = experiment: Potency across healthy and ISM mast cells (FIG. 16); assay type: cell-based; settings: presence of SCF; CD63, CD203, pBTK, histamine, calcium flux
# Protocol: Healthy BM-MC donor 0166 and ISM WB-MC 1061-004 17 Jan. 2024 and 17 Oct. 2024. Experiments performed in the presence of SCF. Sensitization and Stimulation: NP-IgE (100 ng/mL) 18 hrs, NP-BSA (0.5 ng/mL) for 15 min at 37° C. (CD63, CD203, pBTK and histamine) or 4 min at RT (Calcium Flux).
# mast cells [3] = experiment: Return of degranulation after Compound 128 exposure and washout (FIG. 18); assay type: cell-based; settings: flow cytometry
# Source text: FIGS. 18A-D show return of degranulation after Compound 128 exposure.
# mast cells [4] = experiment: Monomeric IgE-mediated degranulation and cytokine production in mast cells; assay type: cell-based, human; settings: mast cells from a healthy donor, treated 2 hours, myeloma IgE with SCF
# Protocol: Mast cells from a healthy donor were starved of SCF for 18 hours and treated with Compound 128 for 2 hours. Mast cells were stimulated with SCF (100 ng/mL) or myeloma IgE (3 μg/mL; Millipore Sigma) alone or in combination for 30 minutes (CD63 and Histamine) or 24 hours (cytokine production), respectively. For the histamine and cytokine test, supernatant was collected and the levels of histamine and cytokines were measured as set forth in Example 4 for histamine and Example 7 for cytokines. For the CD63 test, the cells were stained for CD63, data was acquired on a flow cytometer and percent activated mast cells calculated as set forth in Example 4. […] The monomeric IgE contribution to degranulation and cytokine production is inhibited by Compound 128.
# BTK, sequence (Q06187 whole entry): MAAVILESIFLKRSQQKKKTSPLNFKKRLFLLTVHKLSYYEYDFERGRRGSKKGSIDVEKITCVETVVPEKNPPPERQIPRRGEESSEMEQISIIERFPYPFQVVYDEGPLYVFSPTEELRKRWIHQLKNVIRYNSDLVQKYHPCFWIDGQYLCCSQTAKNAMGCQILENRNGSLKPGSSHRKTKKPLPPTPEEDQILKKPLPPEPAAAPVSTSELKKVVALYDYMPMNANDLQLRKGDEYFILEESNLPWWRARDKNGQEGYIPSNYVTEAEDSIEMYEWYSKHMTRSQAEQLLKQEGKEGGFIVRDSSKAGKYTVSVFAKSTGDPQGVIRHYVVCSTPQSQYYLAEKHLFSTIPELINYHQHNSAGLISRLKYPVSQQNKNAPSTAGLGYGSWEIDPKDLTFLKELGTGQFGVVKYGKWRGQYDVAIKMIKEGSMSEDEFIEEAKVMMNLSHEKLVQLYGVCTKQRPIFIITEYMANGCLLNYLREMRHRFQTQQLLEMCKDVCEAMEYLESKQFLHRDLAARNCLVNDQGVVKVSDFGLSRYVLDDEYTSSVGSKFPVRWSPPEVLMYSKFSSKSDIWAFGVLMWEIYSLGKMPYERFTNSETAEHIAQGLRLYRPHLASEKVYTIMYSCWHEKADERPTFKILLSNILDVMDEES
structure (smiles),measurement,setting,value
"C=CC(=O)N1CCC(F)(CNc2ncnc(N)c2-c2ccc(Oc3ccccc3)cc2)CC1 [Compound 128, 1-(4-(((6-amino-5-(4-phenoxyphenyl)pyrimidin-4-yl)amino)methyl)-4-fluoropiperidin-1-yl)prop-2-en-1-one]",MRGPRX2-induced BTK phosphorylation,BTK,inhibited
same,inhibition of IgE-mediated calcium influx,[1],potently inhibits
same,potency across healthy mast cells and ISM mast cells,mast cells [2],equipotent
same,time to restoration of degranulation after inhibition,mast cells [3],≤ 24 h
same,monomeric IgE contribution to degranulation and cytokine production,mast cells [4],inhibited
